Measured values reported in patent WO2005094256A2, “Polypeptides toxic to nematodes, and methods of use” (Individual, priority 2004, dated 2005).
Where a name gives a salt, the structure may show the parent alone. *1 amine or outer side, *2 acyl side, *3 side chain or, on linkers, in order; H or OH if unused. Where a SMILES comes first, the peptide text is derived from it. [ ]: non-standard residue; d: D form. The star is where a group is joined. Sta = CC(C)C[C@H](N)[C@@H](O)CC(=O)O; Isovaleryl = CC(C)CC(=O)*; CO = O=C([*:1])[*:2]

System: serratia metalloprotease SMP #1 from Serratia marcescens NRRL B-23112, SEQ ID NO:2
Assay: Inhibition of protease activity of SMP #1: residual proteolytic (casein digestion) activity after addition of inhibitor, 25°C, 30 minutes
Assay type: biochemical

## CC(C)C[C@H](NC(=O)[C@@H](NC(=O)N[C@@H](Cc1ccccc1)C(=O)O)[C@@H]1CCN=C(N)N1)C(=O)N[C@H](C=O)Cc1ccccc1 [chymostatin]
50μg/ml
  inhibition of SMP #1: not inhibited

## CC(C)C[C@H](NC(=O)[C@H]1O[C@@H]1C(=O)O)C(=O)NCCCCNC(=N)N [E-64]
20μg/ml
  inhibition of SMP #1: not inhibited

## CC(=O)N[C@@H](CC(C)C)C(=O)N[C@@H](CC(C)C)C(=O)N[C@H](C=O)CCCNC(=N)N [leupeptin]
4μg/ml
  inhibition of SMP #1: not inhibited

## CC(C)CC(=O)N[C@H](C(=O)N[C@H](C(=O)N[C@@H](CC(C)C)[C@@H](O)CC(=O)N[C@@H](C)C(=O)N[C@@H](CC(C)C)[C@@H](O)CC(=O)O)C(C)C)C(C)C [pepstatin] (Isovaleryl-VV[Sta]A[Sta]-OH)
4μg/ml
  inhibition of SMP #1: not inhibited

## O=S(=O)(F)Cc1ccccc1 [phenylmethylsulfonyl fluoride]
400μg/ml
  inhibition of SMP #1: not inhibited

## CC(C)[C@H](NC(=O)[C@H](CCCNC(=N)N)NC(=O)N[C@@H](Cc1ccccc1)C(=O)O)C(=O)N[C@H](C=O)CCCNC(=N)N [antipain dihydrochloride] ({Phe-CO}-Arg-Val-Arg-aldehyde)
120μg/ml
  inhibition of SMP #1: not inhibited

## CC(C)C[C@H](NC(=O)[C@@H](O)[C@H](N)Cc1ccccc1)C(=O)O [bestatin]
80μg/ml
  inhibition of SMP #1: not inhibited

## CC(C)C[C@H](NP(=O)(O)O[C@@H]1O[C@@H](C)[C@H](O)[C@@H](O)[C@H]1O)C(=O)N[C@@H](Cc1c[nH]c2ccccc12)C(=O)O [phosphoramidon]
660μg/ml
  inhibition of SMP #1: not inhibited

## O=C(O)CN(CCN(CC(=O)O)CC(=O)O)CC(=O)O [EDTA]
9μg/ml
  inhibition of SMP #1: inhibited

## OCCS [2-mercaptoethanol]
0.5% v/v
  activity of SMP #1 retained in the presence of 2-mercaptoethanol: retains full activity

## Cl.NCCc1ccc(S(=O)(=O)F)cc1 [Pefabloc SC]
2000μg/ml
  inhibition of SMP #1: not inhibited
